Reference: patent US20070043122A1, “Use of 2,2,3,3, tetramethylcyclopropane carboxylic acid derivatives for treating psychiatric disorders” (YISSUM RESEARCH DEVELOPMENT CO. OF THE HEBREW UNIVERSITY OF …, priority 2003, published 2007)
Like-named read-outs stand apart in the source and are kept apart here. Values belong to the molecule of their own block, whether it stands above or below them.

Legend:
human brain MIP synthase = molecular target: T1, human brain MIP synthase (Homo sapiens, UniProt Q9NPH2); experiment: Human brain MIP synthase activity in postmortem prefrontal cortex homogenate; format: biochemical; conditions: for Ki: human brain homogenate; for inhibited MIP synthase activity (which of the other psychotropic drugs): at concentrations 1.5 times greater than their upper therapeutic range (concentrations in Table 2)
T1 construct: supernatant fraction obtained after sonication; from tissue; host or cells: postmortem human prefrontal cortex, 9,000 x g supernatant of sonicated homogenate
T1 sequence (Q9NPH2 1-558): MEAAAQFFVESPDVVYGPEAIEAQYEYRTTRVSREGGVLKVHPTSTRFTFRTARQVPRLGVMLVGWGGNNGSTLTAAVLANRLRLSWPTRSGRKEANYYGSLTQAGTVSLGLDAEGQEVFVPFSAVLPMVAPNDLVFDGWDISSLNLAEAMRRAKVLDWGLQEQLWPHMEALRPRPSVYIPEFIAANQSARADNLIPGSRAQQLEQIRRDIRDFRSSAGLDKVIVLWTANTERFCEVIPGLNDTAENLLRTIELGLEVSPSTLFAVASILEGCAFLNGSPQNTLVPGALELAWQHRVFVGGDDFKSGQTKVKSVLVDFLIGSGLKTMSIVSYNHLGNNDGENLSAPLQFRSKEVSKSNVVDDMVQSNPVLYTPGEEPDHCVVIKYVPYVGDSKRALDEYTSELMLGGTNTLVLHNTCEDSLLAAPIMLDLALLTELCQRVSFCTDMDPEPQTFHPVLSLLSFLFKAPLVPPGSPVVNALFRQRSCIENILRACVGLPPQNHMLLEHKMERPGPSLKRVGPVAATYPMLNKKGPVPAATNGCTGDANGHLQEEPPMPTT
Experimental: Human brain MIP synthase activity. Five μl of the supernatant fraction obtained after sonication (Ultrasonic Processor, Newtown, Conn., 15 sec at 0.1 output watts at 4° C.) and centrifugation for 20 min at 9,000×g at 4° C. of postmortem human prefrontal cortex (1 mg wet weight in 0.5 ml of 50 mM Tris HCl, pH 7.4) were added to 20 μl reaction mixture containing 4 mM D-glucose-6-phosphate, 1.25 μCi D-glucose-6-phosphate [^14C], 1.6 mM NAD^+, 0.45 mM KCl, 5.4 mM MgCl2 and 0.9 mM Tris HCl, pH 7.6, with or without 5 mU IMPase (Sigma, St. Louis). Incubation with or without various drugs concentrations (table 2 and table 3) was carried out for 3 hours (within the linear range) at 37° C. The reaction was stopped by adding 50 μl cold double distilled water (ddH20). Seventy out of the 80 μl were added to test tubes containing 1.25 g strong basic anion resin (Amberjet 4200, Rohm and Haas, Philadelphia) in 1 ml ddH2O. The mixtures were vortexed for 10 min, then centrifugated for 10 min at 10,000×g at room temperature, and 200 μl supernatant taken for ^14C counting (Liquid Scintillation Counter, Kontron, Basel). The enzymatic activity was calculated by subtracting values without IMPase from the measures with IMPase. The measurements were carried out in triplicate.
Table 2 details the drugs and their concentrations compared with their therapeutic concentrations, studied for possible inhibition of human brain MIP synthase activity. Each drug was tested twice, each experiment in triplicate.

[1] = test system: neural tube defects (NTDs); conditions: in vivo; cited from earlier work
[2] = test system: frontal cortex inositol levels; experiment: Frontal cortex inositol levels in mice after a single dose of VPA (gas chromatography); format: in vivo; conditions: acute, single IP dose 300, 600, 800 mg/kg, sacrificed one hour after injection; all concentrations tested
Experimental: (§1) Animals. The study was approved by the Ben-Gurion University (Beer Sheva, Israel) Institutional Review Committee for the Use of Animals, and the procedures were carried out in compliance with the declaration of the National Institute of Health Guide for care and use of laboratory animals [Council N R, editor. Guide for the care and use of laboratory animals. Washington, D.C.: National Academy Press; 1996]. […] J Neurochem 1999; 72(2):879-82] which approximate therapeutically-relevant plasma levels. […] Prog Neurobiol 1999; 58(1):31-59]. One saline-injected group was sacrificed right after the injection. All other four groups were sacrificed one hour after the injection. Frontal cortex was removed from all mice right after sacrifice and frozen (−70° C.) till further processing. […] Mice of group II (n=13, controls) were injected saline (IP) twice a day. Animals were then sacrificed, brain removed and dealt as above.
Gas chromatographic measurement of brain inositol levels. Mouse brain free inositol levels were analyzed as trimethylsilyl (TMS) derivatives by gas-liquid chromatography (GC), as described in Shapiro J et al [Shapiro J, Belmaker R H, Beigon A, Seker A, Agam G. Scyllo-Inositol in Post-Mortem Brain of Suicide Victims, Bipolar, Unipolar and Schizophrenic Patients. J Neural Transm 2000; 107: 603-607] using a capillary column. […] Replicate reliability was tested in rat brain. […]

[3] = test system: whole brain inositol levels; experiment: Whole brain inositol levels in mice after chronic VPA administration; format: in vivo; conditions: for mice whole brain inositol levels: means ± S.E.M.
Experimental: as §1
Gas chromatographic measurement of brain inositol levels. Mouse brain free inositol levels were analyzed as trimethylsilyl (TMS) derivatives by gas-liquid chromatography (GC), as described in Shapiro J et al [Shapiro J, Belmaker R H, Beigon A, Seker A, Agam G. Scyllo-Inositol in Post-Mortem Brain of Suicide Victims, Bipolar, Unipolar and Schizophrenic Patients. J Neural Transm 2000; 107: 603-607] using a capillary column. […] Replicate reliability was tested in rat brain. […] Each sample extract was assayed at least in duplicate. The results presented are the average of the replicates. Assays were performed in a blind and balanced design such that each run included samples from all comparison groups.

[4] = test system: growth cones of newborn rat dorsal root ganglia (DRG) cells; conditions: reversed by addition of myo-inositol; cited from earlier work
[5] = 400 mg/kg/day IP twice daily for 9 or 28 days; cited from earlier work
IMPase = molecular target: T2, IMPase (Homo sapiens, UniProt P29218); conditions: cited from earlier work
T2 sequence (P29218 1-277): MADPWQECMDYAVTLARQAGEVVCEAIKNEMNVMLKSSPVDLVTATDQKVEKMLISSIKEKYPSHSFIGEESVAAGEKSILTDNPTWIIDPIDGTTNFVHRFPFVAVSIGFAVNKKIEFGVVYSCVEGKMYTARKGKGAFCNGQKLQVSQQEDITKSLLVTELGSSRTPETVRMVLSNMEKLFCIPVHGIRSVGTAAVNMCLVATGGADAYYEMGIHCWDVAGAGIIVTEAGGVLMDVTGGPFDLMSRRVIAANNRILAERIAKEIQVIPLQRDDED

growth cones of rat DRGs = experiment: Growth cone spreading in rat neuron DRG explants; format: cell-based; conditions: 1 mM, 24 hour exposure
Experimental: Rat neuron DRG (dorsal root ganglia) explants. […] After 24 hours for attachment, cytosine β-arabinofuranoside (ara-C, 10 μM) was added for 24 hours to kill non-neuronal cells. […] The explants were then fixed in 4% paraformaldehyde in PBS (Phosphate buffered saline) for 20 minutes at room temperature. Growth cones were analysed on an inverted microscope (Zeiss Axiovert) and measured using an NIH Image software.

Structure (SMILES): CNC(=O)C1C(C)(C)C1(C)C [M-TMCD, N-methyl-2,2,3,3-tetramethylcyclopropanecarboxamide]
inhibition at 1300 µM (human brain MIP synthase; read-out: Inhibition of human brain MIP synthase activity): 93%
teratogenicity [1]: lack of teratogenicity

inhibition at 1000 µM (human brain MIP synthase; 1.0 mM): 100%
Ki (human brain MIP synthase; read-out: Ki for MIP synthase (Dixon's plot)): 210 µM
Ki (human brain MIP synthase; read-out: Ki for MIP synthase (Lineweaver-Burk plot)): 240 µM
Structure (SMILES): CCCC(CCC)C(=O)O [VPA, valproic acid]
reduction in frontal cortex inositol concentration [2]: 20%
mice whole brain inositol levels ([3]; IP injection of VPA twice a day, 400-800 mg/kg/day, fourteen days): 27.9 ± 3.2
mice whole brain inositol levels ([3]; VPA in drinking water (12.5 g/liter) for 11 days): 30.1 ± 1.7
effect of chronic VPA on brain inositol levels ([3]; eleven days in drinking water or 14 days IP injection): did not deplete brain inositol levels
effect on spreading of growth cones of newborn rat DRG cells [4]: increased spreading
blood VPA levels [5]: 0.27 ± 0.02 mM
effect on IMPase activity (IMPase): no effect

inhibition at 1400 µM (human brain MIP synthase; 1.4 mM): 34%
Structure (SMILES): CCCC(CCC)C(N)=O [VPD, valpromide]
effect on growth cone spreading of DRGs (growth cones of rat DRGs): no increased growth cone spreading

inhibited MIP synthase activity (which of the other psychotropic drugs) (human brain MIP synthase): None
Structure (SMILES): NC(=O)N1c2ccccc2C=Cc2ccccc21 [carbamazepine]
effect on spreading of growth cones of newborn rat DRG cells [4]: increased spreading

inhibited MIP synthase activity (which of the other psychotropic drugs) (human brain MIP synthase): None
Structure (SMILES): CN(C)CCCN1c2ccccc2Sc2ccc(Cl)cc21 [chlorpromazine]

inhibited MIP synthase activity (which of the other psychotropic drugs) (human brain MIP synthase): None
Structure (SMILES): CN(C)CCCN1c2ccccc2CCc2ccc(Cl)cc21 [clomipramine]

inhibited MIP synthase activity (which of the other psychotropic drugs) (human brain MIP synthase): None
Structure (SMILES): O=C(CCCN1CCC(O)(c2ccc(Cl)cc2)CC1)c1ccc(F)cc1 [haloperidol]

inhibited MIP synthase activity (which of the other psychotropic drugs) (human brain MIP synthase): None
Structure (SMILES): CN(C)CCCN1c2ccccc2CCc2ccccc21 [imipramine]

inhibited MIP synthase activity (which of the other psychotropic drugs) (human brain MIP synthase): None
Structure (SMILES): O=C1NC(=O)C(c2ccccc2)(c2ccccc2)N1 [phenytoin]
